Data taken from ChEMBL document CHEMBL4184278, “Synthesis and cytotoxicity of novel imidazo[4,5-d]azepine compounds derived from marine natural product ceratamine A” (Bioorg Med Chem Lett, 2018).

Key:
Type in all cases: functional, cell-based
A549 = assay: Cytotoxicity against human A549 cells assessed as growth inhibition after 72 hrs by MTT assay; conditions: A549, 72 h
HCT-116 = assay: Cytotoxicity against human HCT116 cells assessed as growth inhibition after 72 hrs by MTT assay; conditions: HCT-116, 72 h
A2780 = assay: Cytotoxicity against human A2780 cells assessed as growth inhibition after 72 hrs by MTT assay; conditions: A2780, 72 h
BGC-823 = assay: Cytotoxicity against human BGC823 cells assessed as growth inhibition after 72 hrs by MTT assay; conditions: BGC-823, 72 h
HepG2 = assay: Cytotoxicity against human HepG2 cells assessed as growth inhibition after 72 hrs by MTT assay; conditions: HepG2, 72 h

Structure (SMILES) | IC50 (A549) [µM] | IC50 (HCT-116) [µM] | IC50 (A2780) [µM] | IC50 (BGC-823) [µM] | IC50 (HepG2) [µM]
O=C1/C(=C\c2ccccc2)c2c(ncn2COCc2ccccc2)CCN1Cc1ccc(F)cc1 | 19.6 | 11.2 | 24.8 | 72.9 | 39.4
CC(C)(C)c1ccc(CN2CCc3ncn(COCc4ccccc4)c3/C(=C/c3ccccc3)C2=O)cc1 | 20.6 | 8.46 | 23.9 | 27.8 | 18
Cc1cccc(CN2CCc3ncn(COCc4ccccc4)c3/C(=C/c3ccccc3)C2=O)c1 | 16.1 | 3.8 | 26.3 | 14.6 | 34.3
COc1cc(/C=C2\C(=O)N(Cc3ccccc3)CCc3ncn(COCc4ccccc4)c32)cc(OC)c1OC | 8.56 | 8.9 | 8.97 | 12.9 | 10
Cc1cc(C)cc(CN2CCc3ncn(COCc4ccccc4)c3/C(=C/c3ccccc3)C2=O)c1 | 22.5 | 6.23 | 31.3 | 52.6 | 40.9
COc1ccc(CN2CCc3ncn(COCc4ccccc4)c3/C(=C/c3ccccc3)C2=O)cc1 | 46.8 | 31.1 | 43.1 | 71.6 | 44.4
Cc1ccc(CN2CCc3ncn(COCc4ccccc4)c3/C(=C/c3ccccc3)C2=O)cc1 | 11.4 | 7.94 | 21.2 | 39.1 | 44.6
O=C1/C(=C\c2ccccc2)c2c(ncn2COCc2ccccc2)CCN1Cc1ccc(-c2ccccc2)cc1 | 18.3 | 14 | 48.3 | 81 | 72.5
Cc1ccccc1CN1CCc2ncn(COCc3ccccc3)c2/C(=C/c2ccccc2)C1=O | 25.6 | 24.7 | 25.2 | 31.3 | 53.3
O=C1/C(=C\c2ccccc2)c2c(ncn2COCc2ccccc2)CCN1Cc1ccccc1 | 9.9 | 20 | 20.4 | 20.4 | 13.9
O=C1/C(=C\c2ccccc2)c2c(ncn2COCc2ccccc2)CCN1Cc1ccc2ccccc2c1 | 26.4 | 19.4 | 72.8 | 93.3 | 23.7
O=C1/C(=C\c2ccccc2)c2c(ncn2COCc2ccccc2)CCN1Cc1ccc(Cl)cc1 | 11.8 | 10.5 | 22.2 | 75.7 | 47.9
O=C1/C(=C\c2ccccc2)c2[nH]cnc2CCN1Cc1ccccc1 | 51.1 | > 100 | > 100 | > 100 | > 100
O=C1/C(=C\c2ccncc2)c2c(ncn2COCc2ccccc2)CCN1Cc1ccccc1 | 36 | 67.1 | > 100 | > 100 | > 100
O=C1/C(=C\c2ccc(C(F)(F)F)cc2)c2c(ncn2COCc2ccccc2)CCN1Cc1ccccc1 | 52.5 | 36 | 28.2 | 42.6 | 51.4
CNc1nc2ccn(C)c(=O)c(Cc3cc(Br)c(OC)c(Br)c3)c-2n1 [CERATAMINE A] | 26.8 | 12.4 | 11.2 | 20 | 7.8
